Results from patent publication US5061794A, “Cephalosporin derivatives, and antibacterial agents” (priority 1986, dated 1991).
Where a name gives a salt, the structure may show the parent alone. Read-outs that look alike come from different tables or passages of the source.

Legend:
[1] = system: E. coli GN5482; assay: in vitro antibacterial activity, agar plate dilution method (MIC); format: cell-based; conditions: for MIC: Escherichia coli, GN5482, 16 h
How it was run: (§1)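 Overnight Mueller Hinton broth cultures were inoculated onto Mueller Hinton agar containing serial antibiotic concentrations at 10^6 CFU/ml. Plates were incubated at 37° C. for 16 hours, and MIC (μg/ml) was recorded.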

[2] = system: P. vulgaris No. 33; assay: as above; format: cell-based; conditions: 10^6 CFU/ml; for MIC: Proteus vulgaris
How it was run: as §1

[3] = system: E. coli NIHJ JC2; assay: as above; format: cell-based; conditions: for MIC: Escherichia coli
How it was run: as §1

[4] = system: K. pneumoniae PCI-602; assay: as above; format: cell-based; conditions: 10^6 CFU/ml; for MIC: Klebsiella pneumoniae, PCI602, 16 h
How it was run: as §1

[5] = system: E. cloacae Nek 39; assay: as above; format: cell-based; conditions: 10^6 CFU/ml; for MIC: Enterobacter cloacae, NEK39, 16 h
How it was run: as §1

[6] = system: S. marcescens No. 16-2; assay: as above; format: cell-based; conditions: for MIC: Serratia marcescens, NO.162, 16 h, read-out: Minimum Inhibitory Concentration (MIC)
How it was run: as §1

[7] = system: K. pneumoniae No. 42; assay: as above; format: cell-based; conditions: 10^6 CFU/ml; for MIC: Klebsiella pneumoniae
How it was run: as §1

[8] = system: S. marcescens IAM 1184; assay: as above; format: cell-based; conditions: S. marcescens IAM 1184, 10^6 CFU/ml; for MIC: Serratia marcescens, IAM1184, 16 h, read-out: Minimum Inhibitory Concentration (MIC)
How it was run: as §1

[9] = system: S. aureus 209P NIHJ-JC1; assay: as above; format: cell-based; conditions: Staphylococcus aureus, 16 h, 10^6 CFU/ml, 37° C., 16 hours
How it was run: as §1

[10] = system: K. oxytoca GN10650; assay: as above; format: cell-based; conditions: 10^6 CFU/ml; for MIC: Klebsiella oxytoca
How it was run: as §1

[11] = system: M. morganii GN5407; assay: as above; format: cell-based; conditions: 10^6 CFU/ml; for MIC: Morganella morganii, GN5407, 16 h, read-out: Minimum Inhibitory Concentration (MIC), *M. morganii GN5407, lactamase-producing strain
How it was run: as §1

[12] = system: E. cloacae 963; assay: as above; format: cell-based; conditions: 10^6 CFU/ml
How it was run: as §1

[13] = system: P. vulgaris HX-19; assay: as above; format: cell-based; conditions: for MIC: Proteus vulgaris, HX19, 16 h, read-out: Minimum Inhibitory Concentration (MIC)
How it was run: as §1

[14] = system: E. coli CSH(RE45); assay: microbe, parasite or virus in culture; format: cell-based; conditions: 10^6 CFU/ml; for MIC: Escherichia coli, 16 h, read-out: Minimum Inhibitory Concentration (MIC), *E. coli CSH(RE45), lactamase-producing strain
How it was run: as §1

[15] = system: E. coli CSH2 (RK1); assay: microbe, parasite or virus in culture; format: cell-based; conditions: 10^6 CFU/ml; for MIC: Escherichia coli, 16 h, read-out: Minimum Inhibitory Concentration (MIC), *E. coli CSH2 (RK1), lactamase-producing strain
How it was run: as §1

[16] = system: A. calcoaceticus No. 4; assay: in vitro antibacterial activity, agar plate dilution method (MIC); format: cell-based, Acinetobacter calcoaceticus; conditions: 10^6 CFU/ml; for MIC: Acinetobacter calcoaceticus, NO.4, 16 h
How it was run: as §1

[17] = system: Ps. aeruginosa AKR17; assay: as above; format: cell-based, Pseudomonas aeruginosa; conditions: for MIC: Pseudomonas aeruginosa, read-out: Minimum Inhibitory Concentration (MIC)
How it was run: as §1

[18] = system: Ps. aeruginosa AK 109; assay: as above; format: cell-based, Pseudomonas aeruginosa; conditions: for MIC: Pseudomonas aeruginosa, AK109, 16 h, read-out: Minimum Inhibitory Concentration (MIC)
How it was run: as §1

[19] = system: Ps. aeruginosa IF03445; assay: as above; format: cell-based, Pseudomonas aeruginosa; conditions: 10^6 CFU/ml; for MIC: Pseudomonas aeruginosa
How it was run: as §1

[20] = system: Ps. cepacia 23; assay: as above; format: cell-based, Pseudomonas cepacia; conditions: Ps. cepacia 23, 10^6 CFU/ml; for MIC: Burkholderia cepacia, 16 h, read-out: Minimum Inhibitory Concentration (MIC)
How it was run: as §1

[21] = *S. marcescens No. 16-2, lactamase-producing strain, 10^6 CFU/ml
[22] = S. aureus 209P NIHJ-JC1, read-out: Minimum Inhibitory Concentration (MIC)
[23] = Enterobacter cloacae, 16 h, E. cloacae 963, read-out: Minimum Inhibitory Concentration (MIC)
[24] = Ps. aeruginosa AK 109, 10^6 CFU/ml
[25] = read-out: Minimum Inhibitory Concentration (MIC), *E. coli GN5482, lactamase-producing strain, 10^6 CFU/ml
[26] = NO.33, 16 h, read-out: Minimum Inhibitory Concentration (MIC), *P. vulgaris No. 33, lactamase-producing strain
[27] = NIHJJC2, 16 h, read-out: Minimum Inhibitory Concentration (MIC), E. coli NIHJ JC2, 10^6 CFU/ml, 37° C.
[28] = read-out: Minimum Inhibitory Concentration (MIC), K. pneumoniae PCI-602
[29] = read-out: Minimum Inhibitory Concentration (MIC), *E. cloacae Nek 39, lactamase-producing strain
[30] = NO.42, 16 h, read-out: Minimum Inhibitory Concentration (MIC), *K. pneumoniae No. 42, lactamase-producing strain
[31] = GN10650, 16 h, read-out: Minimum Inhibitory Concentration (MIC), *K. oxytoca GN10650, lactamase-producing strain
[32] = read-out: Minimum Inhibitory Concentration (MIC), A. calcoaceticus No. 4
[33] = 16 h, Ps. aeruginosa AKR17, 10^6 CFU/ml
[34] = IF03445, 16 h, read-out: Minimum Inhibitory Concentration (MIC), Ps. aeruginosa IF03445

Structure (SMILES): Nc1nc(/C(=N/OC(C(=O)O)c2ccccc2)C(=O)N[C@@H]2C(=O)N3C(C(=O)O)=C(CSc4nnc(-c5ccc(O)c(O)c5)o4)CS[C@H]23)cs1 (single isomer, unassigned) [Example 24 DB, disodium 78-[2-(2-aminothiazol-4-yl)-2-(α-carboxylatebenzyloxyimino)acetamido]-3-[5-(3,4-dihydroxyphenyl)-1,3,4-oxadiazol-2-yl]-thiomethyl-3-cephem-4-carboxylate]
- Minimum Inhibitory Concentration (MIC) ([1]; *E. coli GN5482, lactamase-producing strain, 10^6 CFU/ml): 0.39 µg/mL
- Minimum Inhibitory Concentration (MIC) ([2]; *P. vulgaris No. 33, lactamase-producing strain): 0.1 µg/mL
- Minimum Inhibitory Concentration (MIC) ([3]; E. coli NIHJ JC2, 10^6 CFU/ml, 37° C., 16 hours): 0.39 µg/mL
- Minimum Inhibitory Concentration (MIC) ([4]; K. pneumoniae PCI-602): < 0.006 µg/mL
- Minimum Inhibitory Concentration (MIC) ([5]; *E. cloacae Nek 39, lactamase-producing strain): 0.05 µg/mL
- Minimum Inhibitory Concentration (MIC) [6, 21]: 0.78 µg/mL
- Minimum Inhibitory Concentration (MIC) ([7]; *K. pneumoniae No. 42, lactamase-producing strain): 0.025 µg/mL
- Minimum Inhibitory Concentration (MIC) [8]: 0.05 µg/mL
- MIC [9, 22]: 25 µg/mL
- Minimum Inhibitory Concentration (MIC) ([10]; *K. oxytoca GN10650, lactamase-producing strain): 0.025 µg/mL
- Minimum Inhibitory Concentration (MIC) ([11]; *M. morganii GN5407, lactamase-producing strain): 0.2 µg/mL
- MIC [12, 23]: 0.1 µg/mL
- Minimum Inhibitory Concentration (MIC) ([13]; P. vulgaris HX-19, 10^6 CFU/ml): 0.05 µg/mL
- Minimum Inhibitory Concentration (MIC) ([14]; *E. coli CSH(RE45), lactamase-producing strain): 0.0125 µg/mL
- Minimum Inhibitory Concentration (MIC) ([15]; *E. coli CSH2 (RK1), lactamase-producing strain): 0.0125 µg/mL
- Minimum Inhibitory Concentration (MIC) ([16]; A. calcoaceticus No. 4): 0.05 µg/mL
- Minimum Inhibitory Concentration (MIC) ([17]; Ps. aeruginosa AKR17, 10^6 CFU/ml): 0.78 µg/mL
- Minimum Inhibitory Concentration (MIC) [18, 24]: 0.2 µg/mL
- Minimum Inhibitory Concentration (MIC) ([19]; Ps. aeruginosa IF03445): 1.56 µg/mL
- Minimum Inhibitory Concentration (MIC) [20]: < 0.006 µg/mL

Structure (SMILES): CON=C(C(=O)NC1C(=O)N2C(C(=O)O)=C(CSc3nc(-c4ccc(O)c(O)c4)cs3)CSC12)c1csc(N)n1 (stereo not drawn) [compound 39, sodium 7β-[2-(2-aminothiazol-4-yl)-2-methoxviminoacetamido]-3-[4-(3,4-dihydroxyphenvl)-thiazol-2-yl]thiomethyl-3-cephem-4-carboxylate]
- MIC [1, 25]: 0.78 µg/mL
- MIC [2, 26]: 0.05 µg/mL
- MIC [3, 27]: 0.1 µg/mL
- MIC [4, 28]: < 0.006 µg/mL
- MIC [5, 29]: 0.39 µg/mL
- MIC [6]: 3.12 µg/mL
- MIC [7, 30]: 0.2 µg/mL
- MIC [8]: 0.05 µg/mL
- MIC ([9]; read-out: Minimum Inhibitory Concentration (MIC), S. aureus 209P NIHJ-JC1): 1.56 µg/mL
- MIC [10, 31]: 1.56 µg/mL
- MIC [11]: 0.05 µg/mL
- MIC ([12]; Enterobacter cloacae, 963, 16 h, read-out: Minimum Inhibitory Concentration (MIC), E. cloacae 963): 0.025 µg/mL
- MIC ([13]; P. vulgaris HX-19, 10^6 CFU/ml): < 0.006 µg/mL
- MIC [14]: 0.1 µg/mL
- MIC [15]: 0.0125 µg/mL
- MIC [16, 32]: 0.39 µg/mL
- MIC [17, 33]: > 100 µg/mL
- MIC [18]: 3.12 µg/mL
- MIC [19, 34]: 1.56 µg/mL
- MIC [20]: 0.2 µg/mL

Structure (SMILES): CO/N=C(\C(=O)N[C@@H]1C(=O)N2C(C(=O)O)=C(CSc3nnc(-c4ccc(O)cc4)s3)CS[C@H]12)c1csc(N)n1 [compound 7, 7β-[2-(2-aminothiazol-4-yl)-2methoxyiminoacetamido]-3-[5-(4-hydroxyphenyl-1,3,4-thiadiazol-2-yl)thiomethyl-3-cephem-4-carboxylic acid trifluoroacetate, reference compound]
- MIC ([1]; read-out: Minimum Inhibitory Concentration (MIC)): 0.78 µg/mL
- MIC ([2]; 16 h, *P. vulgaris No. 33, lactamase-producing strain, read-out: Minimum Inhibitory Concentration (MIC)): 1.56 µg/mL
- MIC ([3]; NIHJJC2, E. coli NIHJ JC2, 10^6 CFU/ml, 37° C., 16 hours, read-out: Minimum Inhibitory Concentration (MIC)): 0.39 µg/mL
- MIC ([4]; K. pneumoniae PCI-602, read-out: Minimum Inhibitory Concentration (MIC)): < 0.006 µg/mL
- MIC ([5]; *E. cloacae Nek 39, lactamase-producing strain, read-out: Minimum Inhibitory Concentration (MIC)): 3.12 µg/mL
- MIC [6, 21]: 3.12 µg/mL
- MIC ([7]; 16 h, *K. pneumoniae No. 42, lactamase-producing strain, read-out: Minimum Inhibitory Concentration (MIC)): 1.56 µg/mL
- MIC [8]: 0.39 µg/mL
- MIC [9, 22]: 0.39 µg/mL
- MIC ([10]; 16 h, *K. oxytoca GN10650, lactamase-producing strain, read-out: Minimum Inhibitory Concentration (MIC)): 3.12 µg/mL
- MIC [11]: 0.78 µg/mL
- MIC [12, 23]: 1.56 µg/mL
- MIC ([13]; P. vulgaris HX-19, 10^6 CFU/ml): < 0.006 µg/mL
- MIC [14]: 0.2 µg/mL
- MIC [15]: 0.2 µg/mL
- MIC ([16]; A. calcoaceticus No. 4, read-out: Minimum Inhibitory Concentration (MIC)): 1.56 µg/mL
- MIC [17, 33]: > 100 µg/mL
- MIC [18, 24]: 25 µg/mL
- MIC ([19]; 16 h, Ps. aeruginosa IF03445, read-out: Minimum Inhibitory Concentration (MIC)): 25 µg/mL
- MIC [20]: 3.12 µg/mL

Structure (SMILES): Nc1nc(/C(=N/OC2(C(=O)O)CC2)C(=O)N[C@@H]2C(=O)N3C(C(=O)O)=C(CSc4ncc(-c5ccc(O)c(O)c5)o4)CS[C@H]23)cs1 [Ex. 66, disodium 7β-[2-(2-aminothiazol-4-yl)-2-(1-carboxylate-1-cyclopropoxyimino)acetamido]-3-[5-(3,4-dihydroxyphenyl)oxazol-2-yl]thiomethyl-3-cephem-4-carboxylate]
- MIC [1, 25]: 1.56 µg/mL
- MIC [2, 26]: 0.025 µg/mL
- MIC [3, 27]: 0.78 µg/mL
- MIC [4, 28]: < 0.006 µg/mL
- MIC [5, 29]: 0.1 µg/mL
- MIC [6]: 3.12 µg/mL
- MIC [7, 30]: 0.1 µg/mL
- MIC [8]: 0.05 µg/mL
- MIC [9, 22]: 25 µg/mL
- MIC [10, 31]: 0.1 µg/mL
- MIC [11]: 0.1 µg/mL
- MIC [12, 23]: 0.2 µg/mL
- MIC [13]: 0.0125 µg/mL
- MIC [14]: 0.05 µg/mL
- MIC [15]: 0.0125 µg/mL
- MIC [16, 32]: 0.1 µg/mL
- MIC ([17]; AKR17, 16 h): 3.12 µg/mL
- MIC [18]: 0.39 µg/mL
- MIC [19, 34]: 0.78 µg/mL
- MIC [20]: < 0.006 µg/mL
